Test results reported in US20230141603A1, “BENZODIAZEPINE DERIVATIVES AS GABA A GAMMA1 PAM” (Hoffmann-La Roche Inc., priority 2021, published 2023).

Biological target: T1, h-GABAA α2β2γ1 (Homo sapiens, UniProt P47869+Q8N1C3)
T1 sequence (P47869 29-451): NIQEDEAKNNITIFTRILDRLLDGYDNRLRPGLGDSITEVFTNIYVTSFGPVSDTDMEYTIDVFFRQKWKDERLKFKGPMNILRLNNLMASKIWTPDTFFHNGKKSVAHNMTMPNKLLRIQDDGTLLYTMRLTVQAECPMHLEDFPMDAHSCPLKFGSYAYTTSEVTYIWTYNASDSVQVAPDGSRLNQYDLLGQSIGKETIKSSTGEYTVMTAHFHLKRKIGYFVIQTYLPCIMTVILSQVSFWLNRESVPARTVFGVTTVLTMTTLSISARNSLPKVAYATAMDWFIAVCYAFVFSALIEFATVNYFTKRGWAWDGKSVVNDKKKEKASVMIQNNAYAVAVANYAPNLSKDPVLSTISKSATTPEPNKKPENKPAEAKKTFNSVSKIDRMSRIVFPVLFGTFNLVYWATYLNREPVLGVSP
T1 sequence (P47870 25-512 partner limits assumed): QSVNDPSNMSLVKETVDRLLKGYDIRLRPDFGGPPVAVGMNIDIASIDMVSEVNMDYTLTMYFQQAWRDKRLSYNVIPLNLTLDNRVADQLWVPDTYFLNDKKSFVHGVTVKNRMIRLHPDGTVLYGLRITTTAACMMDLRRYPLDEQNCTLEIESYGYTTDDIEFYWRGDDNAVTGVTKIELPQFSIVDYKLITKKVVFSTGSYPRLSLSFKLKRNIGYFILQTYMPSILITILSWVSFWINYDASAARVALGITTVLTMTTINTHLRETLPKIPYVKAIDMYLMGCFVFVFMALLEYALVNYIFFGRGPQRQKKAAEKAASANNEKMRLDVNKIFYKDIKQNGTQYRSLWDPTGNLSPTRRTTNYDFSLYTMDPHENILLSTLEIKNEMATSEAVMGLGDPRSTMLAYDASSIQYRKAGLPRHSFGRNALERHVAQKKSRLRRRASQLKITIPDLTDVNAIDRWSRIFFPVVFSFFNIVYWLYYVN
T1 sequence (Q8N1C3 36-465): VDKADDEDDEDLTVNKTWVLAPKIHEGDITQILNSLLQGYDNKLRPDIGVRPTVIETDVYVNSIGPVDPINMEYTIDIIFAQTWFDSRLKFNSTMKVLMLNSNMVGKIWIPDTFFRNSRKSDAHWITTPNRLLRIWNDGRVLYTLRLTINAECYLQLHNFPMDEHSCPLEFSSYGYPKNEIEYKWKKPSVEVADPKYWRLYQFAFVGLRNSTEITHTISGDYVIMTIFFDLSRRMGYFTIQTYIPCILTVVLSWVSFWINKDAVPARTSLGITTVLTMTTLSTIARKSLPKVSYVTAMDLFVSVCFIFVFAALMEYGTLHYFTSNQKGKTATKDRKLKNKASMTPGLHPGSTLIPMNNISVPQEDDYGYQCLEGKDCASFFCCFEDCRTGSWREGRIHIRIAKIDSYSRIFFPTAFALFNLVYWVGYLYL
Test: Two-electrode voltage clamp electrophysiology in Xenopus oocytes, modulation of GABA EC20 current
Format: cell-based
Parameters: host or cells: Xenopus laevis oocytes, RNA micro-injection
Conditions: Table 2; for Efficacy (GABA)%: % modulation of GABA EC20 = 100*(Fold increase−1), compound at approx. 30-fold Ki; for Fold increase h-GABA-A α2β2γ1 oocyte @ 30-fold Ki: compound at approx. 30-fold its Ki α2β2γ1, GABA EC20, Xenopus oocytes
Method in brief: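 Oocytes injected with receptor subunit mRNA were recorded 3–5 days later by two-electrode voltage clamp at −80 mV, room temperature, pH 7.4. Compound was applied during a second GABA EC20 pulse, with at least 3 oocytes per concentration. Efficacy is the ratio-trace extremum, expressed as % modulation of GABA EC20.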

`Fc1cccc(F)c1C1=NCc2nnc(-c3ccncn3)n2-c2ccc(Br)c(Br)c21` [Example 43, 7,8-dibromo-6-(2,6-difluorophenyl)-1-pyrimidin-4-yl-4H-[1,2,4]triazolo[4,3-a][1,4]benzodiazepine] was tested, and the “Efficacy (GABA)%” value was 23% and the “Fold increase h-GABA-A α2β2γ1 oocyte @ 30-fold Ki” value was 1.23.
In the case of `Cc1nnc2n1-c1ccc(C3CC3)c(Cl)c1C(c1c(F)cccc1F)=NC2` [Example 6, 7-chloro-8-cyclopropyl-6-(2,6-difluorophenyl)-1-methyl-4H-[1,2,4]triazolo[4,3-a][1,4]benzodiazepine], the “Efficacy (GABA)%” value is reported as 106% and the “Fold increase h-GABA-A α2β2γ1 oocyte @ 30-fold Ki” value is reported as 2.06.
